Values after ≈ are worked out from the molar mass of the structure shown.
Tests used:
Acinetobacter baumannii [1] = assay: Antibacterial activity against colistin-susceptible Acinetobacter baumannii clinical isolates assessed as percent susceptible isolates by broth microdilution method; format: functional
Acinetobacter baumannii [2] = assay: Antibacterial activity against all antibiotic-resistant Acinetobacter baumannii clinical isolates assessed as percent susceptible isolates by broth microdilution method; format: functional
Acinetobacter baumannii [3] = assay: Antibacterial activity against imipenem-susceptible Acinetobacter baumannii clinical isolates assessed as percent susceptible isolates by broth microdilution method; format: functional
Acinetobacter baumannii [4] = assay: Antibacterial activity against colistin-susceptible Acinetobacter baumannii clinical isolates by broth microdilution method; format: functional
Acinetobacter baumannii [5] = assay: Antibacterial activity against extensively drug-resistant Acinetobacter baumannii clinical isolates assessed as percent susceptible isolates by broth microdilution method; format: functional
Acinetobacter baumannii [6] = assay: Antibacterial activity against colistin-resistant Acinetobacter baumannii clinical isolates assessed as percent susceptible isolates by broth microdilution method; format: functional
Acinetobacter baumannii [7] = assay: Antibacterial activity against colistin-resistant Acinetobacter baumannii clinical isolates by broth microdilution method; format: functional
[8] = Cmax in human serum at […], iv bolus dose followed by dose regimen of […] every 12 hrs; format: ADME, organism-based; parameters: route intravenous
Acinetobacter baumannii [9] = assay: Antibacterial activity against imipenem-susceptible Acinetobacter baumannii clinical isolates by broth microdilution method; format: functional
Acinetobacter baumannii [10] = assay: Antibacterial activity against pandrug-resistant Acinetobacter baumannii clinical isolates by broth microdilution method; format: functional
Acinetobacter baumannii [11] = assay: Antibacterial activity against extensively drug-resistant Acinetobacter baumannii clinical isolates by broth microdilution method; format: functional
[12] = Acinetobacter baumannii, read-out: MIC90

Row | SMILES | Activity (Acinetobacter baumannii [1]) [%] | MIC50 (Acinetobacter baumannii [2]) [µg/mL] | MIC90 (Acinetobacter baumannii [2]) [µg/mL] | MIC50 (Acinetobacter baumannii [3]) [µg/mL] | MIC90 (Acinetobacter baumannii [3]) [µg/mL] | MIC50 (Acinetobacter baumannii [4]) [µg/mL] | MIC50 (Acinetobacter baumannii [5]) [µg/mL] | MIC90 (Acinetobacter baumannii [5]) [µg/mL] | Activity (Acinetobacter baumannii [6]) [%] | MIC90 (Acinetobacter baumannii [7]) [µg/mL] | MIC90 (Acinetobacter baumannii [7]; [12]) [µg/mL] | Cmax [8] [ng/mL] | MIC50 (Acinetobacter baumannii [9]) [µg/mL] | MIC90 (Acinetobacter baumannii [9]) [µg/mL] | MIC50 (Acinetobacter baumannii [10]) [µg/mL] | MIC90 (Acinetobacter baumannii [10]) [µg/mL] | MIC50 (Acinetobacter baumannii [11]) [µg/mL] | MIC90 (Acinetobacter baumannii [11]) [µg/mL]
1 | CN(C)c1ccc(O)c2c1C[C@H]1C[C@H]3[C@H](N(C)C)C(O)=C(C(N)=O)C(=O)[C@@]3(O)C(O)=C1C2=O [MINOCYCLINE] | 18 | 8 (≈ 17.5 µM) | 16 (≈ 35 µM) | 4 (≈ 8.74 µM) | 8 (≈ 17.5 µM) | 8 (≈ 17.5 µM) | 8 (≈ 17.5 µM) | 16 (≈ 35 µM) | 49.4 | 8 (≈ 17.5 µM) | 16 (≈ 35 µM) | – | – | – | – | – | – | –
2 | CN(C)c1cc(NC(=O)CNC(C)(C)C)c(O)c2c1C[C@H]1C[C@H]3[C@H](N(C)C)C(O)=C(C(N)=O)C(=O)[C@@]3(O)C(O)=C1C2=O [TIGECYCLINE] | – | – | – | – | – | 1 (≈ 1.71 µM) | – | – | – | – | 2 (≈ 3.41 µM) | 630 | 1 (≈ 1.71 µM) | 2 (≈ 3.41 µM) | 1 (≈ 1.71 µM) | 2 (≈ 3.41 µM) | 1 (≈ 1.71 µM) | 2 (≈ 3.41 µM)
